Assay results published in patent publication US8481497B2, “Therapeutic agent for cancer, and method for treatment of cancer” (Sapporo Medical University, priority 2007, dated 2013).

Legend:
FGFR1 in KMS12BM cells = test: FGFR1 expression at mRNA level in multiple myeloma cell line by DNA array; type: cell-based; conditions: 1 micro M decitabine (72 hours) and/or 0.5 micro g/mL ADR (24 hours)
Description: Using a DNA array, 1 micro M decitabine and/or 0.5 micro g/mL ADR was administered to KMS12BM cells and a change in expression of FGFR1 at the mRNA level was examined 72 hours after administration of decitabine and 24 hours after administration of ADR. In the graph, the expression level ratio relative to the expression level in the cell line to which no drug was administered is shown on the vertical axis. In the graph, the decitabine administration group is shown by Aza.

FGFR1 = conditions: human hepatic stellate cells; cited from earlier work

For `COc1cccc2c1C(=O)c1c(O)c3c(c(O)c1C2=O)C[C@@](O)(C(=O)CO)C[C@@H]3O[C@H]1C[C@H](N)[C@H](O)[C@H](C)O1` [ADR, adriamycin], the “expression level of FGFR1 at the mRNA level” value (FGFR1 in KMS12BM cells) was “increased”.

B1: interferon-gamma: type II interferon, a cytokine (protein, UniProt P01579 24-161, looked up)
Interferon gamma: QDPYVKEAENLKKYFNAGHSDVADNGTLFLGILKNWKEESDRKIMQSQIVSFYFKLFKNFKDDQSIQKSVETIKEDMNVKFFNSNKKKRDDFEKLTNYSVTDLNVQRKAIHELIQVMAELSPAAKTGKRKRSQMLFRG
For B1, the “expression of FGFR1” value (FGFR1) is given as “reduces”.
